The values that follow come from PubChem BioAssay AID330 (DTP/NCI, 2004).

Where “and” joins values, the source holds several entries; their conditions need not be identical. Equal entries are not always repeated. Inconclusive results and toxic doses are left out.

This experiment deals with P388 leukemia ip, CD2F1 mice, survival T/C. As to the kind of experiment: NCI In Vivo Anticancer Drug Screen. Data for tumor model P388 Leukemia (intraperitoneal) in CD2F1 (CDF1) mice. The following applies: endpoint: median survival time, higher = longer survival. An outline of the steps:
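Mice carrying the transplanted tumor received test compound or vehicle. Survival was recorded in each group, and the value is the treated-group measurement divided by that of the vehicle-treated control group.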

Setting [1] is: dose: 100.0 mg/kg/injection, schedule: Q01DX009 (ip), vehicle: saline with Tween-80.
The mark [2] stands for this setting: dose: 50.0 mg/kg/injection, schedule: Q01DX005 (ip), vehicle: saline with Tween-80.
The mark [3] stands for this setting: dose: 100.0 mg/kg/injection, schedule: Q01DX005 (ip), vehicle: saline with Tween-80.
The mark [4] stands for this setting: dose: 200.0 mg/kg/injection, schedule: Q01DX005 (ip), vehicle: saline with Tween-80.
The mark [5] stands for this setting: dose: 50.0 mg/kg/injection, schedule: Q01DX009 (ip), vehicle: saline with Tween-80.
Setting [6] is: dose: 50.0 mg/kg/injection, schedule: Q01DX009 (ip), vehicle: saline.
[7] abbreviates: dose: 200.0 mg/kg/injection, schedule: Q01DX009 (ip), vehicle: saline.
The mark [8] stands for this setting: dose: 60.0 mg/kg/injection, schedule: Q01DX005 (ip), vehicle: saline with Tween-80.
The mark [9] stands for this setting: dose: 120.0 mg/kg/injection, schedule: Q01DX005 (ip), vehicle: saline with Tween-80.
The mark [10] stands for this setting: dose: 240.0 mg/kg/injection, schedule: Q01DX005 (ip), vehicle: saline with Tween-80.

Take `CC[C@H]1CN2CCc3cc(OC)c(OC)cc3[C@@H]2C[C@@H]1C[C@H]1NCCc2cc(OC)c(OC)cc21`: the T/C (dose: 1.0 mg/kg/injection, schedule: Q01DX009 (ip), vehicle: water) is 112 % of control and 118 % of control; the T/C (dose: 4.0 mg/kg/injection, schedule: Q01DX009 (ip), vehicle: water) is 154 % of control; the T/C (dose: 4.32 mg/kg/injection, schedule: Q04DX003 (ip), vehicle: saline) is 118 % of control and 122 % of control; the T/C (dose: 5.0 mg/kg/injection, schedule: Q04DX003 (ip), vehicle: saline) is 121 % of control; the T/C (dose: 5.18 mg/kg/injection, schedule: Q04DX002 (ip), vehicle: saline) is 106 % of control; the T/C (dose: 5.18 mg/kg/injection, schedule: Q04DX003 (ip), vehicle: saline) was 122 % of control. Also, the T/C reads like this: (dose: 7.2 mg/kg/injection, schedule: Q04DX003 (ip), vehicle: saline) 123 % of control; (dose: 8.0 mg/kg/injection, schedule: Q01DX009 (ip), vehicle: water) 166 % of control and 183 % of control; (dose: 8.64 mg/kg/injection, schedule: Q04DX003 (ip), vehicle: saline) 122 % of control; (dose: 12.0 mg/kg/injection, schedule: Q04DX003 (ip), vehicle: saline) 153 % of control; (dose: 14.4 mg/kg/injection, schedule: Q04DX002 (ip), vehicle: saline) 151 % of control and 156 % of control; (dose: 14.4 mg/kg/injection, schedule: Q04DX003 (ip), vehicle: saline) 153 % of control. In addition, the T/C runs as follows: (dose: 16.0 mg/kg/injection, schedule: Q01DX009 (ip), vehicle: water) 115 % of control; (dose: 20.0 mg/kg/injection, schedule: Q04DX003 (ip), vehicle: saline) 169 % of control and 174 % of control and 175 % of control; (dose: 24.0 mg/kg/injection, schedule: Q04DX002 (ip), vehicle: saline) 175 % of control and 177 % of control; (dose: 24.0 mg/kg/injection, schedule: Q04DX003 (ip), vehicle: saline) 183 % of control and 213 % of control; (dose: 33.3 mg/kg/injection, schedule: Q04DX003 (ip), vehicle: saline) 224 % of control and 94 % of control.
Turning to `C=C(C)C(=O)OCCO` (tested in a mixture with another compound), the T/C was 100 % of control under setting [1]; 100 % of control (dose: 200.0 mg/kg/injection, schedule: Q01DX009 (ip), vehicle: saline with Tween-80); 100 % of control (dose: 400.0 mg/kg/injection, schedule: Q01DX009 (ip), vehicle: saline with Tween-80).
Turning to `Cc1cnc(C)[nH]1`, the T/C under setting [2] is 102 % of control, the T/C under setting [3] is 86 % of control and the T/C under setting [4] was 102 % of control.
As to `Cc1ccc(NC(=O)Oc2ccc(Cl)cc2Cl)c([N+](=O)[O-])c1`, the T/C runs as follows: (dose: 50.0 mg/kg/injection, schedule: Q01DX009 (ip), vehicle: gum acacia) 109 % of control; (dose: 100.0 mg/kg/injection, schedule: Q01DX009 (ip), vehicle: gum acacia) 109 % of control; (dose: 200.0 mg/kg/injection, schedule: Q01DX009 (ip), vehicle: gum acacia) 109 % of control.
Take `CCCCCCCCCCCCCCCCN(C)C(C)c1ccccc1` (stereo not given): the T/C was 103 % of control (dose: 100.0 mg/kg/injection, schedule: Q04DX002 (ip), vehicle: saline with Tween-80); 101 % of control (dose: 200.0 mg/kg/injection, schedule: Q04DX002 (ip), vehicle: saline with Tween-80); 104 % of control (dose: 400.0 mg/kg/injection, schedule: Q04DX002 (ip), vehicle: saline with Tween-80).
As to `CCOC(=O)Oc1ccc(/C=N/NC(N)=S)nc1`, the T/C runs as follows: under setting [5], 163 % of control; under setting [1], 93 % of control.
As to `C=CCCC1CC2CCCCN2O1` (stereo not given), the T/C reads like this: (dose: 61.25 mg/kg/injection, schedule: Q01DX009 (ip), vehicle: saline) 115 % of control; (dose: 122.5 mg/kg/injection, schedule: Q01DX009 (ip), vehicle: saline) 103 % of control; (dose: 245.0 mg/kg/injection, schedule: Q01DX009 (ip), vehicle: saline) 100 % of control.
Take `CC(=O)Oc1cc2c(=O)oc3c(OC(C)=O)c(OC(C)=O)c(OC(C)=O)c4c(=O)oc(c1OC(C)=O)c2c34`: the T/C was 101 % of control (dose: 25.0 mg/kg/injection, schedule: Q01DX009 (ip), vehicle: saline); 86 % of control under setting [6]; 86 % of control (dose: 100.0 mg/kg/injection, schedule: Q01DX009 (ip), vehicle: Klucel (hydroxypropylcellulose) (HPC)); 86 % of control (dose: 200.0 mg/kg/injection, schedule: Q01DX009 (ip), vehicle: Klucel (hydroxypropylcellulose) (HPC)); 88 % of control under setting [7]; 94 % of control (dose: 400.0 mg/kg/injection, schedule: Q01DX009 (ip), vehicle: saline).
For the compound `O=C(Nc1cccnc1)c1ccc(CSc2ccc(Cl)cc2)o1`, the T/C is 104 % of control (dose: 50.0 mg/kg/injection, schedule: Q01DX005 (ip), vehicle: Klucel (hydroxypropylcellulose) (HPC)); 102 % of control (dose: 100.0 mg/kg/injection, schedule: Q01DX005 (ip), vehicle: Klucel (hydroxypropylcellulose) (HPC)); 111 % of control (dose: 200.0 mg/kg/injection, schedule: Q01DX005 (ip), vehicle: Klucel (hydroxypropylcellulose) (HPC)).
`CCOC(=O)C(C)(C(=O)c1ccccc1)C(=O)C(C)(C)C` (stereo not given): the T/C was 107 % of control (dose: 75.0 mg/kg/injection, schedule: Q01DX009 (ip), vehicle: saline with Tween-80); 103 % of control (dose: 150.0 mg/kg/injection, schedule: Q01DX009 (ip), vehicle: saline with Tween-80); 115 % of control (dose: 300.0 mg/kg/injection, schedule: Q01DX009 (ip), vehicle: saline with Tween-80).
Regarding `CC1=NN(c2ccccc2)C(=O)/C1=C\c1ccc([N+](=O)[O-])cc1`, the T/C under setting [8] was 104 % of control, the T/C under setting [9] is 101 % of control and the T/C under setting [10] is 103 % of control.
With `COc1ccc(C2CC(=O)N(c3nccc(C)n3)C(=O)C2)cc1`, the T/C is 98 % of control (dose: 100.0 mg/kg/injection, schedule: Q04DX003 (ip), vehicle: saline); 99 % of control (dose: 200.0 mg/kg/injection, schedule: Q04DX003 (ip), vehicle: saline); 94 % of control (dose: 400.0 mg/kg/injection, schedule: Q04DX003 (ip), vehicle: saline).
For the compound `Cn1c(=O)c2conc2n(-c2ccc(Cl)cc2)c1=O`, the T/C was 100 % of control (dose: 25.0 mg/kg/injection, schedule: Q01DX009 (ip), vehicle: saline with Tween-80); 103 % of control under setting [5]; 95 % of control under setting [1].
Consider `CCCCCCC(=O)/C=C/c1ccc(F)cc1`, for which the T/C is, setting by setting: under setting [2], 101 % of control; under setting [3], 106 % of control; under setting [4], 100 % of control.
On to `CCO/C=C1\SC(=S)N(c2ccccc2C)C1=O`, for which the T/C runs as follows: (dose: 2.5 mg/kg/injection, schedule: Q03HX024 (ip), vehicle: saline with Tween-80) 105 % of control; (dose: 5.0 mg/kg/injection, schedule: Q03HX024 (ip), vehicle: saline with Tween-80) 107 % of control; (dose: 10.0 mg/kg/injection, schedule: Q03HX024 (ip), vehicle: saline with Tween-80) 117 % of control; (dose: 14.6 mg/kg/injection, schedule: Q01DX009 (ip), vehicle: saline with Tween-80) 105 % of control; (dose: 22.0 mg/kg/injection, schedule: Q01DX009 (ip), vehicle: saline with Tween-80) 105 % of control; under setting [1], 160 % of control. The T/C reads like this: (dose: 100.0 mg/kg/injection, schedule: Q04DX003 (ip), vehicle: saline with Tween-80) 116 % of control; (dose: 200.0 mg/kg/injection, schedule: Q04DX003 (ip), vehicle: saline with Tween-80) 120 % of control.
`CS(=O)(=O)Nc1ccc(NC(=O)c2c3ccccc3nc3ccccc23)cc1`: the T/C runs as follows: (dose: 12.5 mg/kg/injection, schedule: Q01DX005 (ip), vehicle: saline with Tween-80) 103 % of control; (dose: 25.0 mg/kg/injection, schedule: Q01DX005 (ip), vehicle: saline with Tween-80) 99 % of control; under setting [2], 109 % of control and 110 % of control.
Regarding `CC(=O)NC(Cc1cccs1)C(=O)O` (stereo not given), the T/C is, setting by setting: under setting [6], 93 % of control; (dose: 100.0 mg/kg/injection, schedule: Q01DX009 (ip), vehicle: saline) 101 % of control; under setting [7], 101 % of control.
Consider `Fc1cccc(F)c1C(Nc1nncs1)Nc1nncs1`, for which the T/C is 108 % of control under setting [8], 109 % of control under setting [9] and 160 % of control under setting [10].
